Experimental data reported in publication PMC8800111 (The Journal of Biological Chemistry, 2021).

Key:
Assay type in all cases: cell-based
[1] = target: proteins of U3A human fibrosarcoma cells (4462 proteins detected) (Homo sapiens, UniProt Q8IW35); conditions: protein CEP97; U3A, 10 μM, 2 h
[2] = target: proteins of U3A human fibrosarcoma cells (4462 proteins detected) (Homo sapiens, UniProt P36543); conditions: protein ATP6V1E1; soluble abundance after heat, U3A cells
[3] = target: proteins of U3A human fibrosarcoma cells (4462 proteins detected) (Homo sapiens, UniProt Q9HAN9); conditions: protein NMNAT1, U3A cells
proteins of U3A human fibrosarcoma cells (4462 proteins detected) (Homo sapiens, UniProt Q9HAN9), sequence (Q9HAN9 whole entry): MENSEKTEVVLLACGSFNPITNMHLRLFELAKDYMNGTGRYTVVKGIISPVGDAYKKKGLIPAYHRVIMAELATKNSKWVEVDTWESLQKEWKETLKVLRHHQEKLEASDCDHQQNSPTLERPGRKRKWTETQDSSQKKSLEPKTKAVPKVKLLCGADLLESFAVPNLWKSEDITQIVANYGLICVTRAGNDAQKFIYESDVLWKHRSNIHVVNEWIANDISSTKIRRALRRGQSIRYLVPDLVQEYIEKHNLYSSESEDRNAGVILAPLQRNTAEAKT

[4] = target: proteins of U3A human fibrosarcoma cells (4462 proteins detected) (Homo sapiens, UniProt Q9NRY5); conditions: protein FAM114A2; U3A cells
[5] = target: proteins of U3A human fibrosarcoma cells (4462 proteins detected) (Homo sapiens, UniProt Q9HB71); conditions: protein CACYBP; U3A cells
proteins of U3A human fibrosarcoma cells (4462 proteins detected) (Homo sapiens, UniProt Q9HB71), sequence (Q9HB71 whole entry): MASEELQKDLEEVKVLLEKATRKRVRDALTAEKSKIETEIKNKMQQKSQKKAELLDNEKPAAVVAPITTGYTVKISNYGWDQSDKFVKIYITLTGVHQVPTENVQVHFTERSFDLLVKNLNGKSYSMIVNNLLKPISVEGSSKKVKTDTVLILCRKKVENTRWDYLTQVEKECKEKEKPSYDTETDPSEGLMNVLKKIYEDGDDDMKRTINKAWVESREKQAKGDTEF

[6] = target: proteins of U3A human fibrosarcoma cells (4462 proteins detected) (Homo sapiens, UniProt Q9Y6D5); conditions: protein ARFGEF2; U3A cells
[7] = target: proteins of U3A human fibrosarcoma cells (4462 proteins detected) (Homo sapiens, UniProt Q9ULU4); conditions: protein ZMYND8; U3A cells
[8] = target: proteins of U3A human fibrosarcoma cells (4462 proteins detected) (Homo sapiens, UniProt P07948); conditions: protein LYN; U3A cells
[9] = target: proteins of U3A human fibrosarcoma cells (4462 proteins detected) (Homo sapiens, UniProt Q32P44); conditions: protein EML3, U3A cells
[10] = target: proteins of U3A human fibrosarcoma cells (4462 proteins detected) (Homo sapiens, UniProt Q9BZZ5); conditions: protein API5; U3A cells
[11] = target: proteins of U3A human fibrosarcoma cells (4462 proteins detected) (Homo sapiens, UniProt P27694); conditions: protein RPA1; U3A cells
proteins of U3A human fibrosarcoma cells (4462 proteins detected) (Homo sapiens, UniProt P27694), sequence (P27694 whole entry): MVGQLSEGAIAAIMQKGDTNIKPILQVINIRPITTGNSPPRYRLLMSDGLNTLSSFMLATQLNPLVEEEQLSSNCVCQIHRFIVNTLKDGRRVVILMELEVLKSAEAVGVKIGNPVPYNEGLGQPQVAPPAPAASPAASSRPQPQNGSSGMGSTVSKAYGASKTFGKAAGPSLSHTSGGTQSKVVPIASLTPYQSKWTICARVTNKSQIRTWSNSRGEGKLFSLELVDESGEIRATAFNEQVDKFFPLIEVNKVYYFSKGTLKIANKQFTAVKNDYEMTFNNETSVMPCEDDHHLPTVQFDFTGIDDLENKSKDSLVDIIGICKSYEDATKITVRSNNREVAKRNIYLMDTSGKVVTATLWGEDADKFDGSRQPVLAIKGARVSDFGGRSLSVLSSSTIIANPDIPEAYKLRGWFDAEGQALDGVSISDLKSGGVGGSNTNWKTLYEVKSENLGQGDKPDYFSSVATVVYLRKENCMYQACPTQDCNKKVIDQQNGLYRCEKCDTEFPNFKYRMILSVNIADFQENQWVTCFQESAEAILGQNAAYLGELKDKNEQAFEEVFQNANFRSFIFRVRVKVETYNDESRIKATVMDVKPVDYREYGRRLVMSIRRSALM

[12] = target: proteins of U3A human fibrosarcoma cells (4462 proteins detected) (Homo sapiens, UniProt Q9H3H3); conditions: protein C11orf68; soluble abundance after heat, U3A cells
proteins of U3A human fibrosarcoma cells (4462 proteins detected) (Homo sapiens, UniProt Q9H3H3), sequence (Q9H3H3 whole entry): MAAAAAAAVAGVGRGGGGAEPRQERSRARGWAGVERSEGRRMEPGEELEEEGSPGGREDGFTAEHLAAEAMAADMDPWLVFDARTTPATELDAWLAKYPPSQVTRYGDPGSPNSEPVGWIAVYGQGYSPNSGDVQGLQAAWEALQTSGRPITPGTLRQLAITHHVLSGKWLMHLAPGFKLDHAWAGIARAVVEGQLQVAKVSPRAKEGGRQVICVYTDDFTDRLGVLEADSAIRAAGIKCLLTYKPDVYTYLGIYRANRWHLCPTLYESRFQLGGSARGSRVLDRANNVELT

[13] = target: proteins of U3A human fibrosarcoma cells (4462 proteins detected) (Homo sapiens, UniProt O00399); conditions: protein DCTN6, U3A cells
proteins of U3A human fibrosarcoma cells (4462 proteins detected) (Homo sapiens, UniProt O00399), sequence (O00399 whole entry): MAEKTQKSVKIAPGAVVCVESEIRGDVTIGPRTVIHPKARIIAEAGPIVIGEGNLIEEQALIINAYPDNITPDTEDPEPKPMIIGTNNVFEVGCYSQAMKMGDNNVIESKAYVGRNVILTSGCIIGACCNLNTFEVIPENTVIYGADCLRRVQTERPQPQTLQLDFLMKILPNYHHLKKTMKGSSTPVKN

[14] = target: proteins of U3A human fibrosarcoma cells (4462 proteins detected) (Homo sapiens, UniProt Q15397); conditions: protein KIAA0020; U3A cells
proteins of U3A human fibrosarcoma cells (4462 proteins detected) (Homo sapiens, UniProt Q15397), sequence (Q15397 whole entry): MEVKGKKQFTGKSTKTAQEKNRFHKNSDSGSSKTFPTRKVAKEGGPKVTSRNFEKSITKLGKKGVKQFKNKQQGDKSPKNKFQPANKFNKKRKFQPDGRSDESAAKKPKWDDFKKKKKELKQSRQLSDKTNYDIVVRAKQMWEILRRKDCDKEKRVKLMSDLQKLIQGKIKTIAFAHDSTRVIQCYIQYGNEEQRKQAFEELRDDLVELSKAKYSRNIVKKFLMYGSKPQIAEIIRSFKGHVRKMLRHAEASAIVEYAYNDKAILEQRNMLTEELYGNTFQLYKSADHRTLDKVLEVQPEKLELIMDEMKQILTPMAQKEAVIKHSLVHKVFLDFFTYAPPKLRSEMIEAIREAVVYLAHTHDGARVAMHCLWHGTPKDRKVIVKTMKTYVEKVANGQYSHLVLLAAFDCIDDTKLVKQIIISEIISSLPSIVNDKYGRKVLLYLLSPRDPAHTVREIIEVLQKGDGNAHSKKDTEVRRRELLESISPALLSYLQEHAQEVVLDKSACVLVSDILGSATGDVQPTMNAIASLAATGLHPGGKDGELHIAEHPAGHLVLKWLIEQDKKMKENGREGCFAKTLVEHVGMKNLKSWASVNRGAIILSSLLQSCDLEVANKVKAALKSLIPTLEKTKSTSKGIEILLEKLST

[15] = target: proteins of U3A human fibrosarcoma cells (4462 proteins detected) (Homo sapiens, UniProt Q9UMX5); conditions: protein NENF, U3A cells
[16] = target: proteins of U3A human fibrosarcoma cells (4462 proteins detected) (Homo sapiens, UniProt P14649); conditions: protein MYL6B, U3A cells
proteins of U3A human fibrosarcoma cells (4462 proteins detected) (Homo sapiens, UniProt P14649), sequence (P14649 whole entry): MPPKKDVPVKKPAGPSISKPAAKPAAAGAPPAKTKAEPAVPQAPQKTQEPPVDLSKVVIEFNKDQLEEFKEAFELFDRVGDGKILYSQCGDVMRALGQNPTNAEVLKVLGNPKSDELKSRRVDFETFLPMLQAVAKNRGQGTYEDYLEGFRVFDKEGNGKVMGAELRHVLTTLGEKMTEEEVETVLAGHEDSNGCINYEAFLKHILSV

[17] = target: proteins of U3A human fibrosarcoma cells (4462 proteins detected) (Homo sapiens, UniProt O75976); conditions: protein CPD; soluble abundance after heat, U3A cells
[18] = target: proteins of U3A human fibrosarcoma cells (4462 proteins detected) (Homo sapiens, UniProt P48507); conditions: protein GCLM; U3A cells
[19] = target: proteins of U3A human fibrosarcoma cells (4462 proteins detected) (Homo sapiens, UniProt O75792); conditions: protein RNASEH2A; U3A cells
proteins of U3A human fibrosarcoma cells (4462 proteins detected) (Homo sapiens, UniProt O75792), sequence (O75792 whole entry): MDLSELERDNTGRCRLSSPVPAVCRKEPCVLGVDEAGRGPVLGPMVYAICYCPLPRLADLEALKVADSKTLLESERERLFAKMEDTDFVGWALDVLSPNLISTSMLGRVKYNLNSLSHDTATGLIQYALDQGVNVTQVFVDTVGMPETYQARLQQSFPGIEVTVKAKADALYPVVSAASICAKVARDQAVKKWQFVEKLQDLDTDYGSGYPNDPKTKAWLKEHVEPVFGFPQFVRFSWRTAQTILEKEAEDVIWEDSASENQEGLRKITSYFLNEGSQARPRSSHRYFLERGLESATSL

[20] = target: proteins of U3A human fibrosarcoma cells (4462 proteins detected) (Homo sapiens, UniProt Q9Y5J6); conditions: protein TIMM10B; U3A cells
proteins of U3A human fibrosarcoma cells (4462 proteins detected) (Homo sapiens, UniProt Q9Y5J6), sequence (Q9Y5J6 whole entry): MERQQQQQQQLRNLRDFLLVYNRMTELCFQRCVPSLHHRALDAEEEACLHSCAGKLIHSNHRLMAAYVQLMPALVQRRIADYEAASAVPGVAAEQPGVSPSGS

[21] = target: proteins of U3A human fibrosarcoma cells (4462 proteins detected) (Homo sapiens, UniProt P23921); conditions: protein RRM1; U3A, 10 μM, 2 h
[22] = target: proteins of U3A human fibrosarcoma cells (4462 proteins detected) (Homo sapiens, UniProt Q9BQG0); conditions: protein MYBBP1A; U3A, 10 μM, 2 h
proteins of U3A human fibrosarcoma cells (4462 proteins detected) (Homo sapiens, UniProt Q9BQG0), sequence (Q9BQG0 whole entry): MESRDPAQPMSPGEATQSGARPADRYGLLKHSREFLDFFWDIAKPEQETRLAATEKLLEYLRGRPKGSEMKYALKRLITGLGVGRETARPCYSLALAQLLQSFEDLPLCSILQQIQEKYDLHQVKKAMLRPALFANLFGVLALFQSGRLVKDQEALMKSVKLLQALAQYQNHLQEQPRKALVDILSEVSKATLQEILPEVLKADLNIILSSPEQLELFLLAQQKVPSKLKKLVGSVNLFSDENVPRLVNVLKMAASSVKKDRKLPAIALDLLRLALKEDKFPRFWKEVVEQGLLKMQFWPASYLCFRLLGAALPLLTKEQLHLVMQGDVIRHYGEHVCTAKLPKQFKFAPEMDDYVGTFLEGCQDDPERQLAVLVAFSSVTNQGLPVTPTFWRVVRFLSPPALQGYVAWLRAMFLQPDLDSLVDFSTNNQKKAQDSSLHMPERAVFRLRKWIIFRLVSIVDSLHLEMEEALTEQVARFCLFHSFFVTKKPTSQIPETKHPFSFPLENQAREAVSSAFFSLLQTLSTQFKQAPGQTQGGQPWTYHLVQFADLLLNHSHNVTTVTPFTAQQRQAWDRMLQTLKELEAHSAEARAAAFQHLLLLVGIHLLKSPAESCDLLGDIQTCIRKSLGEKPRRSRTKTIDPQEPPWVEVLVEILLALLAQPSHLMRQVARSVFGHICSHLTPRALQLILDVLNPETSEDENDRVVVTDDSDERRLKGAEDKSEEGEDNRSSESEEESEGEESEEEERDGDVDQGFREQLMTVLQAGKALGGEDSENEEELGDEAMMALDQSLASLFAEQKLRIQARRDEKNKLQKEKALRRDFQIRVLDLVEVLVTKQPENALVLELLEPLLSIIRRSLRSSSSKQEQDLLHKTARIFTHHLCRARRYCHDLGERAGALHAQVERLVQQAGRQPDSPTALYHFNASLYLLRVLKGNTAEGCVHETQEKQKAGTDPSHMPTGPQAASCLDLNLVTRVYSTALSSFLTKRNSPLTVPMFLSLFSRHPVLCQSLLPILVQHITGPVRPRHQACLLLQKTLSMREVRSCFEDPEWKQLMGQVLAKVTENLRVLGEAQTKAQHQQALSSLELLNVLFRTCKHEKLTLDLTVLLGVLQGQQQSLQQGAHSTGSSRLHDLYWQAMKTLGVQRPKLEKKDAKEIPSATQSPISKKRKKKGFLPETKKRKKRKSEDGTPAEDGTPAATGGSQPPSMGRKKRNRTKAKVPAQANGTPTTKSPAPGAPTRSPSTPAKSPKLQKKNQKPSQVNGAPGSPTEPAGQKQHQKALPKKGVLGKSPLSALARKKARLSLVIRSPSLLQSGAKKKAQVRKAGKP

[23] = target: proteins of U3A human fibrosarcoma cells (4462 proteins detected) (Homo sapiens, UniProt P29317); conditions: protein EPHA2; soluble abundance after heat, U3A cells
[24] = target: proteins of U3A human fibrosarcoma cells (4462 proteins detected) (Homo sapiens, UniProt P49756); conditions: protein RBM25; U3A cells
[25] = target: proteins of U3A human fibrosarcoma cells (4462 proteins detected) (Homo sapiens, UniProt Q12765); conditions: protein SCRN1, U3A cells
[26] = target: proteins of U3A human fibrosarcoma cells (4462 proteins detected) (Homo sapiens, UniProt Q9C0C9); conditions: protein UBE2O; soluble abundance after heat, U3A cells
[27] = target: proteins of U3A human fibrosarcoma cells (4462 proteins detected) (Homo sapiens, UniProt Q9Y385); conditions: protein UBE2J1; U3A cells
[28] = target: proteins of U3A human fibrosarcoma cells (4462 proteins detected) (Homo sapiens, UniProt Q9NWH9); conditions: protein SLTM; soluble abundance after heat, U3A cells
[29] = target: proteins of U3A human fibrosarcoma cells (4462 proteins detected) (Homo sapiens, UniProt P49458); conditions: protein SRP9, U3A cells
proteins of U3A human fibrosarcoma cells (4462 proteins detected) (Homo sapiens, UniProt P49458), sequence (P49458 whole entry): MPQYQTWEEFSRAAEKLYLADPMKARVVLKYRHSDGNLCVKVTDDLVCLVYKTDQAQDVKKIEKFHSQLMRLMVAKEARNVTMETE

[30] = target: proteins of U3A human fibrosarcoma cells (4462 proteins detected) (Homo sapiens, UniProt P15927); conditions: protein RPA2; U3A cells
proteins of U3A human fibrosarcoma cells (4462 proteins detected) (Homo sapiens, UniProt P15927), sequence (P15927 whole entry): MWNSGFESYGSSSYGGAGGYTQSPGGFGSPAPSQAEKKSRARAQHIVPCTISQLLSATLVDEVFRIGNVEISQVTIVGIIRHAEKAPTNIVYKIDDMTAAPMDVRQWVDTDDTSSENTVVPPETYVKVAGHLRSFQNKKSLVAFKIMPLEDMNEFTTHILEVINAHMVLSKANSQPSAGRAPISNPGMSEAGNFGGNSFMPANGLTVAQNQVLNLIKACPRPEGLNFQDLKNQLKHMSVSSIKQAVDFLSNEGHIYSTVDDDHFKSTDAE

proteins of U3A human fibrosarcoma cells (4462 proteins detected) (Homo sapiens, UniProt P36543), sequence (P36543 whole entry): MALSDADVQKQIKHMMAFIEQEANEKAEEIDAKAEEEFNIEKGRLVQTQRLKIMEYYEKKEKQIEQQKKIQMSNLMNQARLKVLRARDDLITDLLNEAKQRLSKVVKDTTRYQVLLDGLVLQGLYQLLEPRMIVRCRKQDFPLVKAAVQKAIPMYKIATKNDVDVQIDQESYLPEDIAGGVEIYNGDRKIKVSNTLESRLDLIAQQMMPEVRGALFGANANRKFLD

CCc1nc(N)nc(N)c1-c1ccc(Cl)cc1 [pyrimethamine]
Log2 (PYR/DMSO), CEP97 [1]: -0.20
Log2 (PYR/DMSO) [2]: 0.14
Log2 (PYR/DMSO) [3]: -0.04
Log2 (PYR/DMSO) [4]: 0.17
Log2 (PYR/DMSO) [5]: 0.19
Log2 (PYR/DMSO) [6]: 0.18
Log2 (PYR/DMSO) [7]: 0.16
Log2 (PYR/DMSO) [8]: 0.16
Log2 (PYR/DMSO) [9]: -0.05
Log2 (PYR/DMSO) [10]: 0.24
Log2 (PYR/DMSO) [11]: 0.16
Log2 (PYR/DMSO) [12]: 0.14
Log2 (PYR/DMSO) [13]: -0.04
Log2 (PYR/DMSO) [14]: 0.18
Log2 (PYR/DMSO) [15]: -0.04
Log2 (PYR/DMSO) [16]: -0.04
Log2 (PYR/DMSO) [17]: 0.14
Log2 (PYR/DMSO) [18]: 0.20
Log2 (PYR/DMSO) [19]: 0.16
Log2 (PYR/DMSO) [20]: 0.18
Log2 (PYR/DMSO), RRM1 [21]: 0.24
Log2 (PYR/DMSO), MYBBP1A [22]: 0.26
Log2 (PYR/DMSO) [23]: 0.15
Log2 (PYR/DMSO) [24]: 0.21
Log2 (PYR/DMSO) [25]: -0.04
Log2 (PYR/DMSO) [26]: 0.14
Log2 (PYR/DMSO) [27]: 0.22
Log2 (PYR/DMSO) [28]: 0.15
Log2 (PYR/DMSO) [29]: -0.05
Log2 (PYR/DMSO) [30]: 0.17
